Results on one substance are retold here after US20110200626A1, “IQGAP3 EPITOPE PEPTIDES AND VACCINES CONTAINING THE SAME” (Oncotherapy Science, Inc., priority 2008, published 2011).

For test [1], the system named is peptide-pulsed T2 cells. As to the kind of experiment: IFN-gamma ELISA assay on CTL lines (HLA-A*0201). The class given is cell-based, human. The conditions noted are these: target cells pulsed with corresponding peptide vs without peptide.
Test [2] relates to peptide-pulsed T2 cells. As to the kind of experiment: IFN-gamma ELISPOT assay on CTLs induced with HLA-A*0201 restricted peptides. The class given is cell-based, human. The conditions noted are these: against peptide-pulsed target cells compared with control without peptide, listed as IQGAP3-A02-10-1424.

Ends that are not written are not given here.

For “SLTAhSLLPL (SLTAHSLLPL; not fully specified (residue 5); printed as SLTAhSLLPL) [SEQ ID NO: 141]”, the “IFN-gamma production of established CTL lines (ELISA)” value in test [1] was “potent IFN-gamma production”. Further, in test [2], the “IFN-gamma production of peptide-induced CTLs (ELISPOT)” value is “potent IFN-gamma production ability”.
